The record followed here is US11208387B2, “Macrocyclic broad spectrum antibiotics” (Genentech, Inc., priority 2019, dated 2021).

SMILES strings stand for the structures. Values after ≈ are worked out from the molar mass of the structure shown. Like-named read-outs stand apart in the source and are kept apart here.

Common to all, as to assay: Serum MIC, broth micro-dilution
Common to all, as to assay type: cell-based
On the technique in general: Dilution methods test growth across graded concentrations, often in twofold steps.

The subject of assay [1] is Klebsiella pneumoniae ATCC 700603. The following applies: Klebsiella pneumoniae, ATCC700603; 50% v/v mouse serum in Mueller Hinton II cation adjusted Broth, 35° C., 22 hours; Table 4; read-out: K pneumoniae 700603 Serum MIC. The procedure, abridged:
(§1)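 Half mouse serum, half cation-adjusted MH II broth (v/v) served as test medium; bacteria at final OD600 0.0005 were exposed to serial 2-fold compound dilutions for 22 h, 35° C, and the MIC was determined per CLSI M07-A8.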

In assay [2] the test system is Escherichia coli strain ATCC 25922. The settings on record: Escherichia coli, ATCC25922; 50% v/v mouse serum in Mueller Hinton II cation adjusted Broth, 35° C., 22 hours; Table 4; read-out: E. coli 25922 Serum MIC. The procedure, abridged:
as §1

For assay [3], the system named is Acinetobacter baumannii ATCC 17978. The following applies: Acinetobacter baumannii, ATCC17978, 50% v/v mouse serum in Mueller Hinton II cation adjusted Broth, 35° C., 22 hours. The procedure, abridged:
as §1

The test system of assay [4] is Pseudomonas aeruginosa PA01. The settings on record: Pseudomonas aeruginosa, PA01; 50% v/v mouse serum in Mueller Hinton II cation adjusted Broth, 35° C., 22 hours; Table 4; read-out: P. aeruginosa 01 Serum MIC. The procedure, abridged: as §1
The mark [5] stands for this setting: Table 4, read-out: A. baumanii 17978 Serum MIC.
[6] abbreviates: Table 5, read-out: Acinetobacter baumanii 17978 Serum MIC.

For `Cc1nc(-c2ccc(C3(C)CC3)cc2)nc(N)c1C(=O)N[C@@H](CCN)C(=O)N(C)[C@@H]1C(=O)N[C@@H](C)C(=O)N[C@H](C(=O)O)Cc2ccc(OC[C@H](O)CN)c(c2)-c2cc1cc(OC[C@H](O)CN)c2O` [Example 21], the MIC (usually the lowest concentration found to suppress growth) in assay [1] turned out to be 0.25 µM (≈ 0.235 µg/mL); in assay [2], 0.38 µM (≈ 0.358 µg/mL); in assay [3] (setting [5]), 16 µM (≈ 15.1 µg/mL); in assay [3] (setting [6]) it was 16 µM (≈ 15.1 µg/mL); in assay [4], 48 µM (≈ 45.2 µg/mL).

In the case of `C[C@@H]1NC(=O)[C@@H](N(C)C(=O)[C@H](CCN)NC(=O)c2cnn(-c3ccc(OCCC(C)(C)C)cc3)c(=O)c2)c2cc(OC[C@H](O)CN)c(O)c(c2)-c2cc(ccc2OC[C@H](O)CN)C[C@@H](C(=O)O)NC1=O` [Example 22, (8S,11S,14S)-18-hydroxy-11-methyl-14-[methyl-[(2S)-4-amino-2-[[1-[4-(3,3-dimethylbutoxy)-phenyl]-6-oxo-pyridazine-4-carbonyl]amino]-butanoyl]amino]-10,13-dioxo-3,17-bis[(2R)-3-amino-2-hydroxy-propoxy]-9,12-diazatricyclo-[13.3.1.12,6]icosa-1(18),2(20),3,5,15(19), 16-hexaene-8-carboxylic acid], the MIC in assay [1] is 0.5 µM (≈ 0.487 µg/mL); in assay [2] it was 1 µM (≈ 0.974 µg/mL); in assay [3] (setting [5]), 32 µM (≈ 31.2 µg/mL); in assay [3] (setting [6]) it was 32 µM (≈ 31.2 µg/mL); in assay [4], 32 µM (≈ 31.2 µg/mL).

Regarding `Cc1nc(N2CCC(C(C)(C)C)CC2)nc(N)c1C(=O)N[C@@H](CCN)C(=O)N(C)[C@@H]1C(=O)N[C@@H](C)C(=O)N[C@H](C(=O)O)Cc2ccc(OC[C@H](O)CN)c(c2)-c2cc1cc(OC[C@H](O)CN)c2O` [Example 25, (8S,11S,14S)-18-hydroxy-11-methyl-14-[methyl-[(2S)-4-amino-2-[[4-amino-2-(4-tert-butyl-1-piperidyl)-6-methyl-pyrimidine-5-carbonyl]amino]-butanoyl]amino]-10,13-dioxo-3,17-bis[(2R)-3-amino-2-hydroxy-propoxy]-9,12-diazatricyclo-[13.3.1.12,6]icosa-1(18),2(20),3,5,15(19), 16-hexaene-8-carboxylic acid], the minimal inhibitory concentration (MIC) in assay [1] came out at 0.5 µM (≈ 0.475 µg/mL); in assay [2] it was 1 µM (≈ 0.95 µg/mL); in assay [3] (setting [5]), 16 µM (≈ 15.2 µg/mL); in assay [3] (setting [6]) it was 16 µM (≈ 15.2 µg/mL); in assay [4] it was 64 µM (≈ 60.8 µg/mL).

For `C[C@@H]1NC(=O)[C@@H](N(C)C(=O)[C@H](CCN)NC(=O)c2cnn(-c3ccc(OC4CCCCC4)cc3)c(=O)c2)c2cc(OC[C@H](O)CN)c(O)c(c2)-c2cc(ccc2OC[C@H](O)CN)C[C@@H](C(=O)O)NC1=O` [Example 26, (8S,11S,14S)-18-hydroxy-11-methyl-14-[methyl-[(2S)-4-amino-2-[[1-[4-(cyclohexoxy)phenyl]-6-oxo-pyridazine-4-carbonyl]amino]-butanoyl]amino]-10,13-dioxo-3,17-bis[(2R)-3-amino-2-hydroxy-propoxy]-9,12-diazatricyclo-[13.3.1.12,6]icosa-1(18),2(20),3,5,15(19), 16-hexaene-8-carboxylic acid], the MIC in assay [1] is 0.75 µM (≈ 0.729 µg/mL); in assay [2], 1 µM (≈ 0.972 µg/mL); in assay [3] (setting [5]), 24 µM (≈ 23.3 µg/mL); in assay [3] (setting [6]), 24 µM (≈ 23.3 µg/mL); in assay [4], 64 µM (≈ 62.2 µg/mL).

Turning to `C[C@@H]1NC(=O)[C@@H](N(C)C(=O)[C@H](CCN)NC(=O)c2cnn(-c3ccc(C4(C)CC4)cc3)c(=O)c2)c2cc(OC[C@H](O)CN)c(O)c(c2)-c2cc(ccc2OC[C@H](O)CN)C[C@@H](C(=O)O)NC1=O` [Example 29, (8S,11S,14S)-18-hydroxy-11-methyl-14-[methyl-[(2S)-4-amino-2-[[1-[4-(1-methylcyclopropyl)-phenyl]-6-oxo-pyridazine-4-carbonyl]amino]-butanoyl]amino]-10,13-dioxo-3,17-bis[(2R)-3-amino-2-hydroxy-propoxy]-9,12-diazatricyclo-[13.3.1.12,6]icosa-1(18),2(20),3,5,15(19), 16-hexaene-8-carboxylic acid], the MIC in assay [1] worked out at 1.8 µM (≈ 1.67 µg/mL); in assay [2], 2.7 µM (≈ 2.51 µg/mL); in assay [3] (setting [5]), 32 µM (≈ 29.7 µg/mL); in assay [3] (setting [6]), 32 µM (≈ 29.7 µg/mL); in assay [4], 64 µM (≈ 59.4 µg/mL).

In the case of `Cc1nc(-c2ccc(C(C)(C)C)cc2)ncc1C(=O)N[C@@H](CN)C(=O)N(C)[C@@H]1C(=O)N[C@@H](C)C(=O)N[C@H](C(=O)O)Cc2ccc(OC[C@H](O)CN)c(c2)-c2cc1cc(OC[C@H](O)CN)c2O` [Example 31, (8S,11S,14S)-18-hydroxy-11-methyl-14-[methyl-[(2S)-3-amino-2-[[2-(4-tert-butylphenyl)-4-methyl-pyrimidine-5-carbonyl]amino]-propanoyl]amino]-10,13-dioxo-3,17-bis[(2R)-3-amino-2-hydroxy-propoxy]-9,12-diazatricyclo-[13.3.1.12,6]icosa-1(18),2(20),3,5,15(19), 16-hexaene-8-carboxylic acid], the minimal inhibitory concentration (MIC) in assay [1] worked out at 0.75 µM (≈ 0.686 µg/mL); in assay [2], 1 µM (≈ 0.914 µg/mL); in assay [3] (setting [5]), 32 µM (≈ 29.2 µg/mL); in assay [3] (setting [6]), 32 µM (≈ 29.2 µg/mL); in assay [4], 48 µM (≈ 43.9 µg/mL).

Take `CCC(C)(C)c1ccc(-c2nc(C)c(C(=O)N[C@@H](CNS(N)(=O)=O)C(=O)N(C)[C@@H]3C(=O)N[C@@H](C)C(=O)N[C@H](C(=O)O)Cc4ccc(OC[C@H](O)CN)c(c4)-c4cc3cc(OC[C@H](O)CN)c4O)c(N)n2)c(F)c1` [Example 33, (8S,11S,14S)-14-[[(2S)-2-[[4-amino-2-[4-(1,1-dimethyl-propyl)-2-fluoro-phenyl]-6-methyl-pyrimidine-5-carbonyl]amino]-3-(sulfamoylamino)-propanoyl]-methyl-amino]-3,17-bis[(2R)-3-amino-2-hydroxy-propoxy]-18-hydroxy-11-methyl-10,13-dioxo-9,12-diazatricyclo-[13.3.1.12,6]icosa-1(18),2(20),3,5,15(19), 16-hexaene-8-carboxylic acid]: the MIC in assay [1] was 1 µM (≈ 1.04 µg/mL); in assay [2], 1 µM (≈ 1.04 µg/mL); in assay [3] (setting [5]), 48 µM (≈ 49.9 µg/mL); in assay [3] (setting [6]), 48 µM (≈ 49.9 µg/mL); in assay [4], 8 µM (≈ 8.32 µg/mL).

For `Cc1nc(-c2ccc(CC3CC3)cc2)nc(N)c1C(=O)N[C@@H](CNS(N)(=O)=O)C(=O)N(C)[C@@H]1C(=O)N[C@@H](C)C(=O)N[C@H](C(=O)O)Cc2ccc(OC[C@H](O)CN)c(c2)-c2cc1cc(OC[C@H](O)CN)c2O` [Example 34, (8S,11S,14S)-14-[[(2S)-2-[[4-amino-2-[4-(cyclopropyl-methyl)phenyl]-6-methyl-pyrimidine-5-carbonyl]amino]-3-(sulfamoylamino)-propanoyl]-methyl-amino]-3,17-bis[(2R)-3-amino-2-hydroxy-propoxy]-18-hydroxy-11-methyl-10,13-dioxo-9,12-diazatricyclo-[13.3.1.12,6]icosa-1(18),2(20),3,5,15(19), 16-hexaene-8-carboxylic acid], the MIC in assay [1] was found to be 0.75 µM (≈ 0.755 µg/mL); in assay [2] it was 0.5 µM (≈ 0.503 µg/mL); in assay [3] (setting [5]) it was 16 µM (≈ 16.1 µg/mL); in assay [3] (setting [6]), 16 µM (≈ 16.1 µg/mL); in assay [4], 12 µM (≈ 12.1 µg/mL).

Consider `Cc1cc(-c2ccc(C(C)(C)C)cc2F)nc(N)c1C(=O)N[C@@H](CNS(N)(=O)=O)C(=O)N(C)[C@@H]1C(=O)N[C@@H](C)C(=O)N[C@H](C(=O)O)Cc2ccc(OC[C@H](O)CN)c(c2)-c2cc1cc(OC[C@H](O)CN)c2O` [Example 35, (8S,11S,14S)-14-[[(2S)-2-[[2-amino-6-(4-tert-butyl-2-fluoro-phenyl)-4-methyl-pyridine-3-carbonyl]amino]-3-(sulfamoylamino)-propanoyl]-methyl-amino]-3,17-bis[(2R)-3-amino-2-hydroxy-propoxy]-18-hydroxy-11-methyl-10,13-dioxo-9,12-diazatricyclo-[13.3.1.12,6]icosa-1(18),2(20),3,5,15(19), 16-hexaene-8-carboxylic acid], for which the MIC in assay [1] amounted to 0.5 µM (≈ 0.513 µg/mL); in assay [2], 0.5 µM (≈ 0.513 µg/mL); in assay [3] (setting [5]), 16 µM (≈ 16.4 µg/mL); in assay [3] (setting [6]) it was 16 µM (≈ 16.4 µg/mL); in assay [4], 8 µM (≈ 8.2 µg/mL).

`CCCCc1ccc(-c2nc(C)c(C(=O)N[C@@H](CNS(N)(=O)=O)C(=O)N(C)[C@@H]3C(=O)N[C@@H](C)C(=O)N[C@H](C(=O)O)Cc4ccc(OC[C@H](O)CN)c(c4)-c4cc3cc(OC[C@H](O)CN)c4O)c(N)n2)cc1` [Example 36, (8S,11S,14S)-14-[[(2S)-2-[[4-amino-2-(4-butylphenyl)-6-methyl-pyrimidine-5-carbonyl]amino]-3-(sulfamoylamino)-propanoyl]-methyl-amino]-3,17-bis[(2R)-3-amino-2-hydroxy-propoxy]-18-hydroxy-11-methyl-10,13-dioxo-9,12-diazatri-cyclo[13.3.1.12,6]icosa-1(18),2(20),3,5,15(19), 16-hexaene-8-carboxylic acid]: the MIC in assay [1] turned out to be 1 µM (≈ 1.01 µg/mL); in assay [2] it was 0.75 µM (≈ 0.756 µg/mL); in assay [3] (setting [5]), 16 µM (≈ 16.1 µg/mL); in assay [3] (setting [6]), 16 µM (≈ 16.1 µg/mL); in assay [4], 16 µM (≈ 16.1 µg/mL).
